In US4962097A, “Method of treating bacterial infection with phosphorus containing DHP enzyme inhibitors” (Merck & Co., Inc., priority 1989, dated 1990):
pKi: −log10 of the molar value.

Target: T1, renal dehydropeptidase I (Sus scrofa, UniProt P22412)
T1 construct: isolated from hog kidneys; from tissue; host or cells: hog kidney
T1 sequence (P22412 17-409): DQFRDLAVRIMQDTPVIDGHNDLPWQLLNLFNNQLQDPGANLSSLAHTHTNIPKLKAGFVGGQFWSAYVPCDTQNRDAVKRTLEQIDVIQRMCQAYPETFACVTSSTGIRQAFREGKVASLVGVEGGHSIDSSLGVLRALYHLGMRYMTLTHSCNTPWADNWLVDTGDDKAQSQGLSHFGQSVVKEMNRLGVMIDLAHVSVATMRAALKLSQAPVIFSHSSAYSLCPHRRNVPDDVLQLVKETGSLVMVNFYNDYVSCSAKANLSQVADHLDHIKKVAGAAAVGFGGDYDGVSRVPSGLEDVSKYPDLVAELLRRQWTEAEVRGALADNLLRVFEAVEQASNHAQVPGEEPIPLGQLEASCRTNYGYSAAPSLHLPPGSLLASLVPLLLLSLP
Test: in vitro screen: inhibition of hydrolysis of glycyldehydrophenylalanine (GDP) by solubilized renal dipeptidase from hog kidneys (renal dehydropeptidase I inhibition)
Format: biochemical
Conditions: GDP 0.05 mM, 50 mM MOPS pH 7.1, 37° C., 275 nm
Description: This measured the ability of compounds to inhibit hydrolysis of glycyldehydrophenylalanine (GDP) by a solubilized preparation of […] isolated from hog kidneys. The procedure is as follows: to a 1 ml system containing 50 mM "MOPS" (3-(N-morpholino)-propanesulfonic acid) buffer, pH 7.1 is added 5 mg of lyophilized enzyme, and the test compound at a final concentration of 0.1 mM. After a five minute incubation at 37° C., GDP is added to a final concentration of 0.05 mM. Incubation is continued for 10 minutes, at 37° C. and hydroylsis of GDP is measured by the change in optical density with time at 275 nm. Inhibition of the enzyme is gauged by comparison to a standard run containing no inhibitor and is expressed as the inhibitor binding constant K. This is the concentration of the inhibitor which achieves 50% inhibition of the enzyme.

[1] = Table II, structure I (saturated)
[2] = Table I, structure II (olefins)

Row | Compound | pKi [1] | pKi [2]
1 | CCCCCC(N)P(=O)(O)CC(CCC1CCCC1)C(=O)O (racemic) [CH3 (CH2)4; (cyclo-C5 H9)CH2 CH2; RS; RS, (1-Amino-1-hexyl) 2-carboxy-4-cyclopenyl-1-butyl phosphinic acid] | 8.15 | –
2 | CCCCCCC(CP(=O)(O)C(N)CCCCC)C(=O)O (racemic) [CH3 (CH2)4; CH3 (CH2)5; RS; RS, (1-Amino-1hexyl) 2-carboxy-l-octyl phosphinic acid] | 8.10 | –
3 | CCCCC(CP(=O)(O)C(N)CC)C(=O)O (racemic) [CH3 CH2; CH3 (CH2)3; RS; RS, 1-Aminopropyl-[2-carboxy-l-hexyl]phosphinic acid] | 8.64 | –
4 | CCC(CP(=O)(O)C(N)CC)C(=O)O (racemic) [CH3 CH2; CH3 CH2; RS; RS, 1-Aminopropyl-[2-carboxy-l-butyl]phosphinic acid] | 8.89 | –
5 | CCC(N)P(=O)(O)CC(CCc1ccccc1)C(=O)O (racemic) [CH3 CH2; Ph(CH2)2; RS; RS, 1-Aminopropyl-[2-carboxy-4-phenyl-l-butyl]phosphinic acid] | 8.17 | –
6 | N[C@@H](CC1CCCCC1)P(=O)(O)C/C(=C\CC1CCCC1)C(=O)O [(1(R)-Amino-2-cyclohexylethyl)2-carboxy-4-cyclopentyl-2(Z)-butenyl phosphinic acid] | – | 9.07
7 | N[C@@H](CC1CCCCC1)P(=O)(O)CC(CCC1CCCC1)C(=O)O (some centres unmarked) [(1-Amino-2-cyclohexylethyl) 2-carboxy-4-cyclopentyl-1-butyl phosphinic acid] | 8.57 | –
8 | N[C@@H](CC1CCCCC1)P(=O)(O)CC(CC1CCCCC1)C(=O)O (some centres unmarked) [(1-Amino-2-cyclohexylethyl)-2-carboxy-3-cyclohexyl-1-propyl phosphinic acid] | 9.30 | –
9 | N[C@@H](CC1CCCCC1)P(=O)(O)CC(CCCc1ccncc1)C(=O)O (some centres unmarked) [(1-Amino-2-cyclohexylethyl)-2-carboxy-5-(4-pyridyl)-pentyl phosphinic acid] | 8.40 | –
10 | CCCCC(CP(=O)(O)C(N)CC(C)C)C(=O)O (centres unmarked) [(CH3)2 CHCH2; CH3 (CH2)3; RS; RS, 1-Amino-3-methylbutyl-[2-carboxy-1-hexyl]phosphinic acid] | 8.62 | –
11 | CCCC/C=C(\CP(=O)(O)C(N)CC(C)C)C(=O)O (centres unmarked) [(CH3)2 CHCH2; CH3 (CH2)3; RS; Z] | – | 8.80
12 | CC(C)/C=C(\CP(=O)(O)[C@@H](N)CC1CCCCC1)C(=O)O [(cyclo-C6 H11)CH2; (CH3)2 CH; R; Z] | – | 9.27
13 | CCCCC/C=C(\CP(=O)(O)C(N)CC1CCCCC1)C(=O)O (centres unmarked) [(cyclo-C6 H11)CH2; CH3 (CH2)4; RS; Z, (1-Amino-2-cyclohexylethyl) 2-carboxy-2(Z)-octenyl phosphinic acid] | – | 8.51
14 | CCCCCCC(CP(=O)(O)C(N)CC1CCCCC1)C(=O)O (centres unmarked) [(cyclo-C6 H11)CH2; CH3 (CH2)5; RS; RS, (1-Amino-2-cyclohexylethyl) 2-carboxy-1-octyl phosphinic acid] | 8.80 | –
15 | N[C@@H](CC1CCCCC1)P(=O)(O)C/C(=C\C1CCCCC1)C(=O)O [(cyclo-C6 H11)CH2; cyclo-C6 H11; R; Z, (1(R)-Amino-2-cyclohexylethyl)2-carboxyl-3(Z)-cyclohexyl-2-propenyl phosphinic acid] | – | 9.28
16 | NC(CC1CCCCC1)P(=O)(O)C/C(=C\C1CCCCC1)C(=O)O (centres unmarked) [(cyclo-C6 H11)CH2; cyclo-C6 H11; RS; Z, (1-Amino-2-cyclohexylethyl) 2-carboxy-3(Z)-cyclohexyl-2-propenyl phosphinic acid] | – | 9.05
17 | CCCCCC(N)P(=O)(O)CC(CC1CCCCC1)C(=O)O (centres unmarked) [CH3 (CH2)4; (cyclo-C6 H11)CH2; RS; RS, (1-Amino-1-hexyl) 2-carboxy-3-cyclohexyl-1-propyl phosphinic acid] | 8.01 | –
18 | CCCCC/C=C(\CP(=O)(O)C(N)CCCCC)C(=O)O (centres unmarked) [CH3 (CH2)4; CH3 (CH2)4; RS; Z, (1-Aminohexyl) 2-carboxy-2(Z)-octenyl phosphinic acid] | – | 8.85
19 | CCCCCC(N)P(=O)(O)C/C(=C\C1CCCCC1)C(=O)O (centres unmarked) [CH3 (CH2)4; cyclo-C6 H11; RS; Z, (1-Aminohexyl) 2-carboxy-3-cyclohexyl-2(Z)-propenyl phosphinic acid] | – | 9.30
20 | CCCCC(CP(=O)(O)C(N)Cc1ccccc1)C(=O)O (centres unmarked) [PhCH2; CH3 (CH2)3; RS; RS, 1-Amino-2-phenylethyl-[2-carboxy-1-hexyl]phosphinic acid] | 7.08 | –
21 | CCCCC/C=C(\CP(=O)(O)C(N)Cc1ccccc1)C(=O)O (centres unmarked) [PhCH2; CH3 (CH2)4; RS; Z] | – | 7.17
22 | (1(R)-Amino-2-cyclohexylethyl)2-carboxyl-4-methyl-(E & Z)-2-butenyl phosphinic acids (15C & 15D) [(cyclo-C6 H11)CH2; (CH3)2 CH; RS; Z] [listing 1 of 2 here] | – | 8.68
23 | (1(R)-Amino-2-cyclohexylethyl)2-carboxyl-4-methyl-(E & Z)-2-butenyl phosphinic acids (15C & 15D) [(cyclo-C6 H11)CH2; (CH3)2 CH; RS; Z] [listing 2 of 2 here] | – | 7.68
